Source: patent publication US11020398B2, “Amino-pyrrolopyrimidinone compounds and methods of use thereof” (ArQule, Inc., priority 2016, dated 2021)

Target: phosphorylated form of full length BTK (active BTK) (Homo sapiens (Human), UniProt Q06187)
Assay: Mobility shift assay (MSA, Caliper LabChip), active BTK assay
Type: biochemical
Details: Assay type B (MSA using active BTK)
Procedure: The active BTK assay consists of phosphorylated form of full length BTK. […] The enzyme inhibitor complexes is incubated, before the kinase activation reaction is initiated.
Mobility Shift Assay (MSA)
The active BTK assay consisted of phosphorylated form of full length BTK. […] The enzyme inhibitor complexes was incubated for 30 minutes at the room temperature and the kinase activation reaction was initiated by the addition of 1 μM Srctide peptide substrate and […].

phosphorylated form of full length BTK (active BTK), sequence (Q06187 whole entry): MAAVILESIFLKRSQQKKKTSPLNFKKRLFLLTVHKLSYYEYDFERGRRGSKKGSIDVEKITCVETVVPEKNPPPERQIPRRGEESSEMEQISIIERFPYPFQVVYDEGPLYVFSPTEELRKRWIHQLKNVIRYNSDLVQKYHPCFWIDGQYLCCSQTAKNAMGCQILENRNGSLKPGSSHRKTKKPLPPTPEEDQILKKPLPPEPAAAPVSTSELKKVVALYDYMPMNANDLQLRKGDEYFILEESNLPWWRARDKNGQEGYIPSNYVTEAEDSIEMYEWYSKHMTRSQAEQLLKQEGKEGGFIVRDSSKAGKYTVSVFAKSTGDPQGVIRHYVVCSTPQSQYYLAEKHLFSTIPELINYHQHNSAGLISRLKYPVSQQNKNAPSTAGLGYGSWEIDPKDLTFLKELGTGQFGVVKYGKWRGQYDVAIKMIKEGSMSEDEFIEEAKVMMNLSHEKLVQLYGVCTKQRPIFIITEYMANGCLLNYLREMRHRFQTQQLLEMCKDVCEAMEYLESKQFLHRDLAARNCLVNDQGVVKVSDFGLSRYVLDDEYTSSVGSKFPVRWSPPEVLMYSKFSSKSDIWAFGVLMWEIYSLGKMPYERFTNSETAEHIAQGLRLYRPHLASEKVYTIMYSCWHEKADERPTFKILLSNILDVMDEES

Row | Compound | IC50
1 | N[C@H]1CC[C@@H](Nc2ncnc3[nH]cc(C(=O)c4cccc(Oc5ccccc5)c4)c23)CC1 [Compound I-131, (4-((cis-4-aminocyclohexyl)amino)-7H-pyrrolo[2,3-d]pyrimidin-5-yl)(3-phenoxyphenyl)methanone] | 3.8 nM
2 | C[C@@H](O)[C@@H](CO)NC(=O)[C@@H]1CC[C@@H](Nc2ncnc3[nH]cc(C(=O)c4ccc(Oc5ccccc5)cc4)c23)CO1 [Compound I-175, (2S,5R)—N-((2R,3R)-1,3-dihydroxybutan-2-yl)-5-((5-(4-phenoxybenzoyl)-7H-pyrrolo[2,3-d]pyrimidin-4-yl)amino) tetrahydro-2H-pyran-2-carboxamide] | 3.1 nM
3 | O=C(c1ccc(Oc2ccccc2)cc1)c1c[nH]c2ncnc(N[C@@H]3CC[C@@H](C(=O)NC[C@@H](O)CO)OC3)c12 [Compound I-176, (2S,5R)—N—((R)-2,3-dihydroxypropyl)-5-((5-(4-phenoxybenzoyl)-7H-pyrrolo[2,3-d]pyrimidin-4-yl)amino)tetrahydro-2H-pyran-2-carboxamide] | 2.5 nM
4 | CN(C)C[C@]1(O)CC[C@H](Nc2ncnc3[nH]cc(C(=O)c4ccc(Oc5ccccc5)cc4Cl)c23)CC1 [Compound I-177, (2-chloro-4-phenoxyphenyl)(4-((trans-4-((dimethylamino)methyl)-4-hydroxycyclohexyl)amino)-7H-pyrrolo[2,3-d]pyrimidin-5-yl)methanone] | 1.7 nM
5 | CN(C)C[C@]1(O)CC[C@@H](Nc2ncnc3[nH]cc(C(=O)c4ccc(Oc5ccccc5)cc4Cl)c23)CC1 [Compound I-178, (2-chloro-4-phenoxyphenyl)(4-((cis-4-((dimethylamino)methyl)-4-hydroxycyclohexyl)amino)-7H-pyrrolo[2,3-d]pyrimidin-5-yl)methanone] | 2.2 nM
6 | CN(C)CC(=O)N[C@H]1CC[C@@H](Nc2ncnc3[nH]cc(C(=O)c4ccc(Oc5ccccc5)cc4Cl)c23)CC1 [Compound I-181, N-(cis-4-((5-(2-chloro-4-phenoxybenzoyl)-7H-pyrrolo[2,3-d]pyrimidin-4-yl)amino)cyclohexyl)-2-(dimethylamino)acetamide] | 0.98 nM
7 | C[C@@H](O)[C@@H]1CC[C@@H](Nc2ncnc3[nH]cc(C(=O)c4ccc(Oc5cccc(F)c5)cc4Cl)c23)CO1 [Compound I-182, (2-chloro-4-(3-fluorophenoxy)phenyl)(4-(((3R,6S)-6-((R)-1-hydroxyethyl)tetrahydro-2H-pyran-3-yl)amino)-7H-pyrrolo[2,3-d]pyrimidin-5-yl)methanone] | 1.5 nM
8 | C[C@@H](O)[C@@H]1CC[C@@H](Nc2ncnc3[nH]cc(C(=O)c4ccc(Oc5cccc(Cl)c5)cc4Cl)c23)CO1 [Compound I-183, (2-chloro-4-(3-chlorophenoxy)phenyl)(4-(((3R,6S)-6-((R)-1-hydroxyethyl)tetrahydro-2H-pyran-3-yl)amino)-7H-pyrrolo[2,3-d]pyrimidin-5-yl)methanone] | 2.2 nM
9 | CC(C)(C)OC(=O)N[C@H]1CC[C@H](Nc2ncnc3[nH]cc(C(=O)c4ccc(Oc5ccccc5)cc4)c23)C1 [Compound I-184, tert-butyl ((1S,3S)-3-((5-(4-phenoxybenzoyl)-7H-pyrrolo[2,3-d]pyrimidin-4-yl)amino)cyclopentyl)carbamate] | 61 nM
10 | CC(C)(C)OC(=O)N[C@H]1C[C@H](Nc2ncnc3[nH]cc(C(=O)c4ccc(Oc5ccccc5)cc4)c23)C1 [Compound I-185, tert-butyl (trans-3-((5-(4-phenoxybenzoyl)-7H-pyrrolo[2,3-d]pyrimidin-4-yl)amino)cyclobutyl)carbamate] | 57 nM
11 | CC(C)(C)OC(=O)N[C@H]1C[C@@H](Nc2ncnc3[nH]cc(C(=O)c4ccc(Oc5ccccc5)cc4)c23)C1 [Compound I-186, tert-butyl (cis-3-((5-(4-phenoxybenzoyl)-7H-pyrrolo[2,3-d]pyrimidin-4-yl)amino)cyclobutyl)carbamate] | 12 nM

Now from value to molecule:

Row | IC50 | Compound
12 | 4.2 nM | O=C(c1ccc(Oc2ccccc2)cc1)c1c[nH]c2ncnc(N[C@H]3C[C@H](CO)C3)c12 [Compound I-187, (4-((trans-3-(hydroxymethyl)cyclobutyl)amino)-7H-pyrrolo[2,3-d]pyrimidin-5-yl)(4-phenoxyphenyl)methanone]
13 | 1.7 nM | CC(C)(O)[C@@H]1CC[C@@H](Nc2ncnc3[nH]cc(C(=O)c4ccc(Oc5ccccc5)cc4Cl)c23)CO1 [Compound I-188, (2-chloro-4-phenoxyphenyl)(4-(((3R,6S)-6-(2-hydroxypropan-2-yl)tetrahydro-2H-pyran-3-yl)amino)-7H-pyrrolo[2,3-d]pyrimidin-5-yl)methanone]
14 | 17 nM | N[C@@H]1CC[C@@H](Nc2ncnc3[nH]cc(C(=O)c4ccc(Oc5ccccc5)cc4)c23)C1 [Compound I-189, (4-(((1R,3R)-3-aminocyclopentyl)amino)-7H-pyrrolo[2,3-d]pyrimidin-5-yl)(4-phenoxyphenyl)methanone]
15 | 17 nM | N[C@H]1C[C@@H](Nc2ncnc3[nH]cc(C(=O)c4ccc(Oc5ccccc5)cc4)c23)C1 [Compound I-190, (4-((cis-3-aminocyclobutyl)amino)-7H-pyrrolo[2,3-d]pyrimidin-5-yl)(4-phenoxyphenyl)methanone]
16 | 37 nM | N[C@H]1C[C@H](Nc2ncnc3[nH]cc(C(=O)c4ccc(Oc5ccccc5)cc4)c23)C1 [Compound I-191, (4-((trans-3-aminocyclobutyl)amino)-7H-pyrrolo[2,3-d]pyrimidin-5-yl)(4-phenoxyphenyl)methanone]
17 | 4.4 nM | CC(=O)N[C@@H]1CC[C@@H](Nc2ncnc3[nH]cc(C(=O)c4ccc(Oc5ccccc5)cc4)c23)C1 [Compound I-192, N-((1R,3R)-3-((5-(4-phenoxybenzoyl)-7H-pyrrolo[2,3-d]pyrimidin-4-yl)amino)cyclopentyl)acetamide]
18 | 1.2 nM | C[C@H](O)C(=O)N[C@H]1CC[C@@H](Nc2ncnc3[nH]cc(C(=O)c4ccc(Oc5ccccc5)cc4Cl)c23)CC1 [Compound I-193, (S)—N-(cis-4-((5-(2-chloro-4-phenoxybenzoyl)-7H-pyrrolo[2,3-d]pyrimidin-4-yl)amino)cyclohexyl)-2-hydroxypropanamide]
19 | 1.5 nM | CC(C)(O)C(=O)N[C@H]1CC[C@@H](Nc2ncnc3[nH]cc(C(=O)c4ccc(Oc5ccccc5)cc4Cl)c23)CC1 [Compound I-194, N-(cis-4-((5-(2-chloro-4-phenoxybenzoyl)-7H-pyrrolo[2,3-d]pyrimidin-4-yl)amino)cyclohexyl)-2-hydroxy-2-methylpropanamide]
20 | 2.2 nM | CC(=O)N[C@H](C)[C@@H]1CC[C@@H](Nc2ncnc3[nH]cc(C(=O)c4ccc(Oc5ccccc5)cc4Cl)c23)CO1 [Compound I-195, N—((R)-1-((2S,5R)-5-((5-(2-chloro-4-phenoxybenzoyl)-7H-pyrrolo[2,3-d]pyrimidin-4-yl)amino)tetrahydro-2H-pyran-2-yl)ethyl)acetamide]
21 | 3.2 nM | CC(=O)N[C@H]1C[C@@H](Nc2ncnc3[nH]cc(C(=O)c4ccc(Oc5ccccc5)cc4)c23)C1 [Compound I-196, N-(cis-3-((5-(4-phenoxybenzoyl)-7H-pyrrolo[2,3-d]pyrimidin-4-yl)amino)cyclobutyl)acetamide]
22 | 1.6 nM | Cc1cc(Oc2ccccc2)ccc1C(=O)c1c[nH]c2ncnc(N[C@@H]3CC[C@@H]([C@@H](C)O)OC3)c12 [Compound I-197, (4-(((3R,6S)-6-((R)-1-hydroxyethyl)tetrahydro-2H-pyran-3-yl)amino)-7H-pyrrolo[2,3-d]pyrimidin-5-yl)(2-methyl-4-phenoxyphenyl)methanone]
